We go through eleven molecules from patent US20260184713A1, “KINASE INHIBITORS” (The United States of America, as represented by the …, priority 2022, published 2026).

Some results are limits rather than exact numbers.

The target in one series is CAMK1δ (Homo sapiens, UniProt Q8IU85). The series is described as follows: HOTSPOT radiometric kinase assay.
A further series deals with T1, STK39/STLK3 (Homo sapiens, UniProt Q9UEW8).
T1 construct: purchased Reaction Biology Corp
Briefly: HOTSPOT radiometric kinase assay. The series is classed as biochemical. The following applies: 50 nM, 10 μM ATP.

Another series concerns the target PKCα (Homo sapiens, UniProt P17252). The series is described as follows: HOTSPOT radiometric kinase assay.
The target of a further series is T2, CLK1 (Homo sapiens, UniProt P49759).
T2 construct: purchased Reaction Biology Corp
Briefly: HOTSPOT radiometric kinase assay. The series is classed as biochemical. The following applies: 50 nM, 10 μM ATP.

In the next series the target is T3, PKG1β (Homo sapiens, UniProt Q13976).
T3 construct: purchased Reaction Biology Corp
T3 sequence (Q13976 1-686 isoform Q13976-2): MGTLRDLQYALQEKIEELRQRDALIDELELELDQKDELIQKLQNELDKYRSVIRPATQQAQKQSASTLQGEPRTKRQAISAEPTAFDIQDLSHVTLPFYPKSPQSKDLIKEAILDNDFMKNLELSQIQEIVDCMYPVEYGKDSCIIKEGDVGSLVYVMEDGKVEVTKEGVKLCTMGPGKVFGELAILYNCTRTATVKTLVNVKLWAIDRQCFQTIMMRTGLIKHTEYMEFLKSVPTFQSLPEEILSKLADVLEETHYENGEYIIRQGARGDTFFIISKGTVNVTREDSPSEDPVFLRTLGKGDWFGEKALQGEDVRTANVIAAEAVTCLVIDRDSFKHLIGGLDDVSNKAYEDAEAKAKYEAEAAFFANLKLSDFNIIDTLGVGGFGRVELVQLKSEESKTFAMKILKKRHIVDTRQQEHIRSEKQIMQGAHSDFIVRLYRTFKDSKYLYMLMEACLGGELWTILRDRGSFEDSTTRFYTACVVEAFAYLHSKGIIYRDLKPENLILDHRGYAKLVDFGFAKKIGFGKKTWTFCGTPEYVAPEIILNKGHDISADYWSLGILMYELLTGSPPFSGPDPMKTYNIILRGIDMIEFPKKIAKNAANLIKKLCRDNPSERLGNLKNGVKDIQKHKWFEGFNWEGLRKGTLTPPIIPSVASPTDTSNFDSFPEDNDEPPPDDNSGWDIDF
Briefly: HOTSPOT radiometric kinase assay. It is filed as biochemical. Particulars: 50 nM, 10 μM ATP.

The next series deals with ERBB2/HER2 (Homo sapiens, UniProt P04626). The series is described as follows: HOTSPOT radiometric kinase assay.
In a further series the target is wide-type PKA (wt-PKA) (Homo sapiens, UniProt P17612). The series is described as follows: modified sandwich ELISA, wild-type PKA. The series is classed as biochemical. The following applies: read-out: IC50 against wt-PKA.
A further series deals with T4, LATS1 (Homo sapiens, UniProt O95835).
T4 construct: purchased Reaction Biology Corp
T4 sequence (O95835 1-1130): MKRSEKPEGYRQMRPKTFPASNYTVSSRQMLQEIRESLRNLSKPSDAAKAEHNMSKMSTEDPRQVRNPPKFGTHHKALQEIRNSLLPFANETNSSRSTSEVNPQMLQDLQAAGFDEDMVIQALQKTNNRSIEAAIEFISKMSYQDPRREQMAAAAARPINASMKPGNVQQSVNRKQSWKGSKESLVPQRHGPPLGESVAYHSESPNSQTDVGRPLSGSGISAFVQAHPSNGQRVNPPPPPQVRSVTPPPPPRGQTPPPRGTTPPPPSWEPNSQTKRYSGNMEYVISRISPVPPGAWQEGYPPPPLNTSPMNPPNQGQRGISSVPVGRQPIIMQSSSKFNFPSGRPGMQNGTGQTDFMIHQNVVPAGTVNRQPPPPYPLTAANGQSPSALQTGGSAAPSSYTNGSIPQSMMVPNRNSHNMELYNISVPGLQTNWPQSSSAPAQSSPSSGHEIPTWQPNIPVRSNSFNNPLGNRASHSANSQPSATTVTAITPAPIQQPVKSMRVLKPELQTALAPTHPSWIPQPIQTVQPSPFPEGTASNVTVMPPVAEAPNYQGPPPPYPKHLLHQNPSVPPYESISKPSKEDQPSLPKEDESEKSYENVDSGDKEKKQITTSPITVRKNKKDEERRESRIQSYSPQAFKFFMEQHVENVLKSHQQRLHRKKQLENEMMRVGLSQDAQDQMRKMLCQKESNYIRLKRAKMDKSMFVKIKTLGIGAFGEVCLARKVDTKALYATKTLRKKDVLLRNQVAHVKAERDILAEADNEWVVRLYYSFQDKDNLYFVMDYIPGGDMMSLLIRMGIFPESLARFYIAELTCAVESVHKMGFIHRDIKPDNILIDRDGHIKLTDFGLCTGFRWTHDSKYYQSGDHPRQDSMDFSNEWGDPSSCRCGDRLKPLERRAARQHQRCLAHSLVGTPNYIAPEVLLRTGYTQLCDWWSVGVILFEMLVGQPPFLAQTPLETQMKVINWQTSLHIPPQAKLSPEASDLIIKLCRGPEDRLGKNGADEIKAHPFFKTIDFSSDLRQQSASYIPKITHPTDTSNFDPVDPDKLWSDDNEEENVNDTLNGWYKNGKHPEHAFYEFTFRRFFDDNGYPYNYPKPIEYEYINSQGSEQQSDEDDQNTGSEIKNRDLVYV
Briefly: HOTSPOT radiometric kinase assay. It is filed as biochemical. Particulars: 50 nM, 10 μM ATP.

The target of another series is CK1α1 (Homo sapiens, UniProt P48729). Briefly: HOTSPOT radiometric kinase assay.
CK1α1, sequence (P48729 whole entry): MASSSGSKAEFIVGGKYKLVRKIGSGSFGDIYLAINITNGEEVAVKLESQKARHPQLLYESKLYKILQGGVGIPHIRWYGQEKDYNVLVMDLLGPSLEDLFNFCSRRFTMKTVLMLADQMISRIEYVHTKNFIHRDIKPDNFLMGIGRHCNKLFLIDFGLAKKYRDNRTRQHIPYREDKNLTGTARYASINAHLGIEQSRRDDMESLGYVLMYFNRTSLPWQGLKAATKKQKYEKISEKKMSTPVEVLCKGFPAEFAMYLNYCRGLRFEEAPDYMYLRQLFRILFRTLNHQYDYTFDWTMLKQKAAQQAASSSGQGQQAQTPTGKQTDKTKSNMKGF
In the next series the target is T5, DYRK2 (Homo sapiens, UniProt Q92630).
T5 construct: purchased Reaction Biology Corp
T5 sequence (Q92630 1-601): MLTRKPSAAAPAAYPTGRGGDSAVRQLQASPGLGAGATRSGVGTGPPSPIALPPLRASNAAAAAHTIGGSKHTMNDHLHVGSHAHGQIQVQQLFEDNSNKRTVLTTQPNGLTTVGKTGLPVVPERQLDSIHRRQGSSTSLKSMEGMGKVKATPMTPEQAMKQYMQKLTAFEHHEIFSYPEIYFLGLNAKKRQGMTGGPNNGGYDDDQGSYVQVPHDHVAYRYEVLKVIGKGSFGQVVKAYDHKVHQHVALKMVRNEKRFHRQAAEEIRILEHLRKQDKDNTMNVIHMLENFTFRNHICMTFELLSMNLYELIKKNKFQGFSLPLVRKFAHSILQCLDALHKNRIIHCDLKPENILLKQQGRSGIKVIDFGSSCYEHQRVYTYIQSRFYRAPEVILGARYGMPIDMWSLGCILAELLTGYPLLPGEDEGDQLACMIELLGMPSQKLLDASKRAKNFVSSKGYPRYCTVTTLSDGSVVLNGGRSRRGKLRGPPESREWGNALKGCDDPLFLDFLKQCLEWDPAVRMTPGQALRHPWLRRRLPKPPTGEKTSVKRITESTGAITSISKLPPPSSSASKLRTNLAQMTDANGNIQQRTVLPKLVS
Briefly: HOTSPOT radiometric kinase assay. The series is classed as biochemical. The following applies: 50 nM, 10 μM ATP.

The target of another series is PKAα (Homo sapiens, UniProt P17612). The series is described as follows: HOTSPOT radiometric kinase assay.
For series [1], the system named is panel of 370 human protein kinases. The series is described as follows: pan human kinome profiling (370 kinases). Particulars: 50 nM; panel of 370 kinases.
The target of a further series is MAP2K1 (MEK1) (Homo sapiens, UniProt Q02750). Briefly: HOTSPOT radiometric kinase assay.
The next series addresses PKG1α (Homo sapiens, UniProt Q13976). The series is described as follows: HOTSPOT radiometric kinase assay. It is filed as biochemical. The following applies: 50 nM, 10 μM ATP.
In the next series the target is AKT1 (Homo sapiens, UniProt P31749). Briefly: HOTSPOT radiometric kinase assay.
AKT1, sequence (P31749 whole entry): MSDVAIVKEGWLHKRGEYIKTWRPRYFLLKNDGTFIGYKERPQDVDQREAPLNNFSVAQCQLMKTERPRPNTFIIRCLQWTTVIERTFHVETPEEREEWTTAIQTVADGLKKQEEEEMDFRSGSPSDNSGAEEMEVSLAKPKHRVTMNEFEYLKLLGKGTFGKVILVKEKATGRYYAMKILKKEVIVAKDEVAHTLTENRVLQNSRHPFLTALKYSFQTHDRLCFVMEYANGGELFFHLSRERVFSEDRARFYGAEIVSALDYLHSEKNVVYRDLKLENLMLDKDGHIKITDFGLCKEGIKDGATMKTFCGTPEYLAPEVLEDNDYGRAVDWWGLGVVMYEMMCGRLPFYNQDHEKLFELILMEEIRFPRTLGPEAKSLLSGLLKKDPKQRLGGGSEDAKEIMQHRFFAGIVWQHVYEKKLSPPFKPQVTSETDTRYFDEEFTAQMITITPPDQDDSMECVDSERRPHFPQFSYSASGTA
Another series concerns the target FLT1/VEGFR1 (Homo sapiens, UniProt P17948). The series is described as follows: HOTSPOT radiometric kinase assay.
Another series deals with T6, PKCθ (Homo sapiens, UniProt Q04759).
T6 construct: purchased Reaction Biology Corp
T6 sequence (Q04759 whole entry): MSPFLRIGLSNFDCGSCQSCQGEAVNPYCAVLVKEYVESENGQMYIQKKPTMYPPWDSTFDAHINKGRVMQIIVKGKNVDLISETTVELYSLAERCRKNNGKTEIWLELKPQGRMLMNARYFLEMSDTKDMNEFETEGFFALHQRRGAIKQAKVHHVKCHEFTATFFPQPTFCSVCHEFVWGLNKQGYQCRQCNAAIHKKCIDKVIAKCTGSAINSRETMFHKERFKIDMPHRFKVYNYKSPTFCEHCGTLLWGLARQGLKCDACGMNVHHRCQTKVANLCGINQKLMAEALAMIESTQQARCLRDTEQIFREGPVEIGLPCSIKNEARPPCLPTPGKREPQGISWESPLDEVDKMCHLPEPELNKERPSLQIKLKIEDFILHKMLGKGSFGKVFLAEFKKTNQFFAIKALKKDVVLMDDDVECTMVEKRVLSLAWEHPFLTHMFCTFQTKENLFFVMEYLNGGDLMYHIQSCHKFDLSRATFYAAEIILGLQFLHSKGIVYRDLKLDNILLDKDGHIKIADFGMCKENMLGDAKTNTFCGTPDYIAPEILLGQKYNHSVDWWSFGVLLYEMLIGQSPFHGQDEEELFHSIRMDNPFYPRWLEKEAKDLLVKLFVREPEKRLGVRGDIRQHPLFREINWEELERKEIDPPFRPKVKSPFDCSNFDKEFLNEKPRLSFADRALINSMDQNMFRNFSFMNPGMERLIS
Briefly: HOTSPOT radiometric kinase assay. It is filed as biochemical. The following applies: 50 nM, 10 μM ATP.

The next series concerns the target ERK1 (Homo sapiens, UniProt P27361). The series is described as follows: HOTSPOT radiometric kinase assay.
The next series deals with GSK3β (Homo sapiens, UniProt P49841). The series is described as follows: HOTSPOT radiometric kinase assay.
The next series deals with T7, DYRK1A (Homo sapiens, UniProt Q13627).
T7 construct: purchased Reaction Biology Corp
The series is described as follows: HOTSPOT radiometric kinase assay. The series is classed as biochemical. The following applies: 50 nM, 10 μM ATP.

The target in another series is T8, PKADJ (Homo sapiens, UniProt P17612).
T8 construct: gene fusion between the first exon of the gene encoding the Heat Shock Protein 40 (HSP40) family member DNAJB1 and the second exon; the other entry of the earlier key: DNAJB1 (P25685, DnaJ homolog subfamily B member 1)
Briefly: modified sandwich ELISA, PKADJ holoenzyme. It is filed as biochemical. The procedure:
The reaction and readout components of this assay were than optimized including optimal reactant concentrations for the kinase reaction suitable to identify both inhibitors and activators of PKAJ.
The PKADJ holoenzyme was treated with the test compounds in the reaction step where the holoenzyme was dissociated to release the activated catalytic unit (PKADJc).

Series [2] deals with RIα2:JPKAcα2 chimeric kinase holoenzyme (Homo sapiens, UniProt P17612). The series is described as follows: JPKAcα chimeric kinase holoenzyme ELISA dose response.
Protocol: Compounds were tested to determine an IC50 value for inhibitory activity against RIα2:JPKAcα2 chimeric kinase holoenzyme. A 3× dose-response curve was set up over a final compound concentration range of 0-10 μM containing 1 μM cAMP, 50 μM ATP, and 0.4% DMSO in 100 mM Tris-HCl pH 7.5 (all final concentrations). A no cAMP/ATP control was also included for background normalization.
The % normalized activity measures were then fit to the following equation using a nonlinear regression least-squares fit with a variable slope (GraphPad Prism Software, San Diego, CA) an IC50 value was calculated using the following formula.
The target of another series is T9, DYRK4 (Homo sapiens, UniProt Q9NR20).
T9 construct: purchased Reaction Biology Corp
T9 sequence (Q9NR20 whole entry): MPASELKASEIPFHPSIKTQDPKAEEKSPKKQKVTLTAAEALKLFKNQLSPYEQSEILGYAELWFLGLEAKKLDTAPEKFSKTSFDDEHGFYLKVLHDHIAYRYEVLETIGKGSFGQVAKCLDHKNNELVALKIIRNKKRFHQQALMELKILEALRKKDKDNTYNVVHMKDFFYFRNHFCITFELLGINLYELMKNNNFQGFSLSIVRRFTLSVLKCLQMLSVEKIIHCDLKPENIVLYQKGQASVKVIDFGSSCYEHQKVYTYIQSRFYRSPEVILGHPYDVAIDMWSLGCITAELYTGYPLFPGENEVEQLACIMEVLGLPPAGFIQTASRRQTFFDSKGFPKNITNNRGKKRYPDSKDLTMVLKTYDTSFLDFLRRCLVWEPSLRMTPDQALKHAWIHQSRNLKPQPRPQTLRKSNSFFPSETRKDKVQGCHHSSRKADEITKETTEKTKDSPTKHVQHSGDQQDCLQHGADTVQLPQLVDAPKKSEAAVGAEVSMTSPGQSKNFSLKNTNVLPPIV
The series is described as follows: HOTSPOT radiometric kinase assay. It is filed as biochemical. Particulars: 10 μM ATP.

PKG1α, sequence (Q13976 whole entry): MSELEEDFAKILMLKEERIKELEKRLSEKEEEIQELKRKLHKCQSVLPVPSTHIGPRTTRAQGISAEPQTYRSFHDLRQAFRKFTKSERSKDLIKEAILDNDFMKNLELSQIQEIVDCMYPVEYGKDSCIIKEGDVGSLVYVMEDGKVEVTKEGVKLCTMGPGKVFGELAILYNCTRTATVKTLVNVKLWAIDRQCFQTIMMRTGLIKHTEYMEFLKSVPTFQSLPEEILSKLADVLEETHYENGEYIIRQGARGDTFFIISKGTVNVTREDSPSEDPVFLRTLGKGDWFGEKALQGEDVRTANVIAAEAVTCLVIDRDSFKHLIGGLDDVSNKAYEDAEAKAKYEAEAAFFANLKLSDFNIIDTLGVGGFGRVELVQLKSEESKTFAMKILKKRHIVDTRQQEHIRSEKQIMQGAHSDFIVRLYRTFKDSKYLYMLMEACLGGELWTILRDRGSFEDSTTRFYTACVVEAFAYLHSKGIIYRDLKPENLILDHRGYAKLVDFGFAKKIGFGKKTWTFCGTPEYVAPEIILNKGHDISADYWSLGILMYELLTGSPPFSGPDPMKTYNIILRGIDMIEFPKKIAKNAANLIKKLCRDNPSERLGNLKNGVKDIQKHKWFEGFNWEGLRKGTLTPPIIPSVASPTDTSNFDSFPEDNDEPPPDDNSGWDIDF
ERK1, sequence (P27361 whole entry): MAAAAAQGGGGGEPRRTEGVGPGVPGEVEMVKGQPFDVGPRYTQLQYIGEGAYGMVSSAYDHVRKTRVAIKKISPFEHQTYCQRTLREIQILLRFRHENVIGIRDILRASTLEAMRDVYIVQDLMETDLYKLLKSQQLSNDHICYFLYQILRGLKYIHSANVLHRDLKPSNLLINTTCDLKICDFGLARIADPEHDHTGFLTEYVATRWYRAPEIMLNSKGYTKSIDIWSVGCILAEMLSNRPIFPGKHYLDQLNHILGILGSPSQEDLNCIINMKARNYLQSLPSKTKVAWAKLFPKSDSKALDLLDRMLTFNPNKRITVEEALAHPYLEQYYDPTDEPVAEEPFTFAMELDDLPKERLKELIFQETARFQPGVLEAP
CAMK1δ, sequence (Q8IU85 whole entry): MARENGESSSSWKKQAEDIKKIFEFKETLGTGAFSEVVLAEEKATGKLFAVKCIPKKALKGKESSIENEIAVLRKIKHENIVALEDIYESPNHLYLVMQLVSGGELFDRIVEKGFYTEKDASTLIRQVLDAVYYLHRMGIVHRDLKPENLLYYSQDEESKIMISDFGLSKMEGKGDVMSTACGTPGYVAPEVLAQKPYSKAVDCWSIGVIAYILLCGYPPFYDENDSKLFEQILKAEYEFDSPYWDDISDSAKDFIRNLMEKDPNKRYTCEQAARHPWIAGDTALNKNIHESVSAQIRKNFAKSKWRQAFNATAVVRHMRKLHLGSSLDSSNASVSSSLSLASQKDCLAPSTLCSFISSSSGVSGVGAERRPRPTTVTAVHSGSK
Protocol for PKAα: The differential was calculated as follows: IC50 (kinase)/IC50 (PKG1a).

In the case of `Cn1cnc(Br)c1C1=CN(c2ncnc3nc[nH]c23)CCS1` [Compound 1a, Aplithianine A1], the IC50 at CAMK1δ was 18 to 65 µM; against PKCα, 0.8 to 6.6 µM; on ERBB2/HER2, 18 to 65 µM; on wide-type PKA (wt-PKA), 1.22 µM; on CK1α1, 0.8 to 6.6 µM; at PKAα, 0.043 to 0.189 µM. Besides, the IC50 against MAP2K1 (MEK1) is 18 to 65 µM; on AKT1, 0.043 to 0.189 µM; against FLT1/VEGFR1, 18 to 65 µM; at ERK1, 0.8 to 6.6 µM; on GSK3β it was 0.043 to 0.189 µM. Also, the inhibition at 0.05 µM against STK39/STLK3, against CLK1, at PKG1β, against LATS1, on DYRK2 and against PKG1α was more than 50% in each case. The inhibition at 0.05 µM against PKCθ and against DYRK1A was more than 50% in each case. Further, the PKAα % inhibition on PKAα (50 nM, 10 μM ATP) came to 78%. Moreover, the “number of kinases more potent targets compared to PKA” value in series [1] worked out at 29.
For `Cn1cncc1C1=CN(c2ncnc3[nH]c(=O)[nH]c23)CCS1` [Compound 2, Aplithianine B], the “fold less potent than 1 against PKADJ” value at PKADJ (compared with compound 1) was “more than 60 fold”. Besides, the half-inhibitory concentration (IC50) at PKADJ (modified sandwich ELISA, read-out: IC50 against PKADJ) is 69 µM; at wide-type PKA (wt-PKA), 45 µM.
In [2], `O=C(NCCNC(=O)c1ccccn1)C1=CN(c2ncnc3nc[nH]c23)CCS1` [Compound 183A049C, N-(2-(picolinamido)ethyl)-4-(7H-purin-6-yl)-3,4-dihydro-2H-1,4-thiazine-6-carboxamide] gave an IC50 of more than 10 µM.
Turning to `NCCNC(=O)C1=CN(c2ncnc3[nH]cnc23)CCS1` [Compound 183A049E, N-(2-aminoethyl)-4-(7H-purin-6-yl)-3,4-dihydro-2H-1,4-thiazine-6-carboxamide], the IC50 in [2] was 0.1 to 1 µM.
Turning to `O=C(NCCNC(=O)c1ccccc1)C1=CN(c2ncnc3nc[nH]c23)CCS1` [Compound 183A049F, N-(2-benzamidoethyl)-4-(7H-purin-6-yl)-3,4-dihydro-2H-1,4-thiazine-6-carboxamide], in series [2], the IC50 was more than 10 µM.
In turn, `CC(=O)NCCNC(=O)C1=CN(c2ncnc3[nH]cnc23)CCS1` [Compound 183A050B, N-(2-acetamidoethyl)-4-(7H-purin-6-yl)-3,4-dihydro-2H-1,4-thiazine-6-carboxamide] registered an IC50 in series [2] of more than 10 µM.
Turning to `COCCNC(=O)C1=CN(c2ncnc3[nH]cnc23)CCS1` [Compound 183A050C, N-(2-methoxyethyl)-4-(7H-purin-6-yl)-3,4-dihydro-2H-1,4-thiazine-6-carboxamide], in [2], the IC50 was more than 10 µM.
`O=C(NCCO)C1=CN(c2ncnc3[nH]cnc23)CCS1` [Compound 183A050D, N-(2-hydroxyethyl)-4-(7H-purin-6-yl)-3,4-dihydro-2H-1,4-thiazine-6-carboxamide] had an IC50 in [2] of more than 10 µM.
On the same count and under the same terms, the same measure for `CNCCNC(=O)C1=CN(c2ncnc3nc[nH]c23)CCS1` [Compound 183A050E, N-(2-(methylamino)ethyl)-4-(7H-purin-6-yl)-3,4-dihydro-2H-1,4-thiazine-6-carboxamide]: 1.01 to 10 µM.
As for `NCCNC(=O)C1CN(c2ncnc3[nH]cnc23)CCS1` (stereo not drawn) [Compound 183A051C, N-(2-aminoethyl)-4-(7H-purin-6-yl)thiomorpholine-2-carboxamide], the IC50 in series [2] was more than 10 µM.
`O=C1Nc2ccc(I)cc2/C1=C/c1cc(Br)c(O)c(Br)c1` [GW5074, reference compound]: on DYRK4, the IC50 was determined as 3.66 µM.
